These are literature values, as cited in patent US11337971B2, “Dopamine D3 receptor selective antagonists/partial agonists and uses thereof” (THE UNITED STATES OF AMERICA, AS REPRESENTED BY THE …, priority 2018, dated 2022).

Each structure is given as a SMILES string.

Series [1] concerns opioid-induced conditioned place preference. To be noted: Ashby et al, 2003; cited from earlier work.
For another series, the system named is Male Long-Evans rats. To be noted: Rice et al, 2012; cited from earlier work.

Regarding `N#Cc1ccc2c(c1)CCN(CCC1CCC(NC(=O)c3ccnc4ccccc34)CC1)C2` (centres unmarked) [SB-277011A], in series [1], the “opioid-induced conditioned place preference” value is on record as “significantly inhibiting opioid-induced conditioned place preference”. In the series with Male Long-Evans rats, the “CPA induced by naloxone-precipitated withdrawal” value is “significantly blocked CPA induced by naloxone-precipitated withdrawal”.
